Test results as given in patent US20070093536A1, “Target protein of antidiabetic and novel antidiabetic insuful corresponding thereto” (priority 2003, published 2007).
Where two headings read alike, the source gives them in different places.

Target: T1, FLJ14797-derived protein (γ-tubulin ring complex protein) (Homo sapiens, UniProt Q9UGJ1)
T1 construct: histidine tag (N); FLAG tag (N); made in house; host or cells: cell-free protein synthesis system (PROTEIOS; TOYOBO) using wheat germ extracts
Test: Biacore S51 surface plasmon resonance analysis of interaction between compound and immobilized FLJ14797-derived protein
Assay type: binding
Procedure: Genes of interest in human full-length cDNA clones were subjected to BP reaction with a PCR cloning vector Gateway pDONR201 using Gateway system available from Invitrogen according to the kit's protocol to give an entry vector. pEU3-NII (TOYOBO) compatible with a cell-free protein synthesis system (PROTEIOS; TOYOBO) using wheat germ extracts was used as a source vector, from which a double-tag destination vector used as the destination vector of the Gateway system was prepared by introducing Gateway cassette with Gateway recombinant sequence into the pEU3-NII vector so that the Gateway system could be utilized, and further modifying the resulting vector by PCR so that peptides having histidine and FLAG tag sequences would be expressed in the N-terminal region of an expressed protein.
The prepared double-tag destination vector and entry vector were used to conduct […] using the Gateway system (Invitrogen) according to the protocol. The resulting product was transformed into Escherichia coli competent cells DH5α to select clones where the expression vector was introduced. Plasmids were prepared from the obtained clones using QIAfilter Midi kit (QIAGEN) according to the kit's protocol. The obtained plasmids were treated with phenol and chloroform according to the PROTEIOS (TOYOBO) protocol and subjected to the inactivation treatment of RNase to give purified expression plasmids.
Recombinant proteins were synthesized by the cell-free protein synthesis system (PROTEIOS; TOYOBO) using wheat germ extracts. mRNA was prepared according to the PROTEIOS protocol from the expression plasmids obtained by the method described in the paragraph 1. A 20-μg aliquot of the obtained mRNA was used to synthesize proteins in 2 wells of a 96-well micro titer plate according to the PROTEIOS protocol. The synthesized proteins were subjected to high-speed centrifugation treatment to remove precipitations. The obtained soluble fractions were purified using ANTI-FLAG M2 Affinity Gel (SIGMA) immobilizing thereon an anti-FLAG tag antibody according to the protocol to give purified proteins.
The surface of a CM5 sensor chip for S51 commercially available from Biacore was converted to NTA using IM EDC, 1.33 M NHS, and 16 mg/ml AB-NTA (pH 9.2) to make an NTA sensor chip for S51. The proteins expressed in the wheat germ system and purified with a FLAG tag were immobilized on this chip. The immobilization was performed by sequentially injecting 0.5 M NiCl2, 0.4 M EDC, […], a ligand (protein) solution, and 1 M ethanolamine (pH 8.5) into the passage system of Biacore S51. A running buffer used for the immobilization was PBS (pH 7.4). The ligand-immobilized sensor chip was used to conduct assay described below. A running buffer used was prepared by adding DMSO at the final concentration of 5% to HBS (10 mM HEPES and 150 mM NaCl, (pH 7.6)), 0.005% P20, and 100 uM mineral ion cocktail (Ca(OAc)2, Zn(OAc)2.2H2O, Cu(OAc)2.H2O, Co(OAc)2.4H2O, Mn(OAc)2.4H2O, Mg(OAc)2.4H2O, and FeCl3.6H2O). Compounds to be measured were prepared by making ½ serial dilutions (9 points) from 62.5 uM to 0.244 uM solutions. Solvents used for the compound solutions were prepared in the same composition as that of the running buffer. A solution containing only the solvents without the compound was prepared for zero-concentration measurement. […]

[1] = Biacore S51, FLJ14797-derived protein, same way as Example 1, Table 1, read-out: KD

T1 sequence (Q9UGJ1 whole entry, one chain of several): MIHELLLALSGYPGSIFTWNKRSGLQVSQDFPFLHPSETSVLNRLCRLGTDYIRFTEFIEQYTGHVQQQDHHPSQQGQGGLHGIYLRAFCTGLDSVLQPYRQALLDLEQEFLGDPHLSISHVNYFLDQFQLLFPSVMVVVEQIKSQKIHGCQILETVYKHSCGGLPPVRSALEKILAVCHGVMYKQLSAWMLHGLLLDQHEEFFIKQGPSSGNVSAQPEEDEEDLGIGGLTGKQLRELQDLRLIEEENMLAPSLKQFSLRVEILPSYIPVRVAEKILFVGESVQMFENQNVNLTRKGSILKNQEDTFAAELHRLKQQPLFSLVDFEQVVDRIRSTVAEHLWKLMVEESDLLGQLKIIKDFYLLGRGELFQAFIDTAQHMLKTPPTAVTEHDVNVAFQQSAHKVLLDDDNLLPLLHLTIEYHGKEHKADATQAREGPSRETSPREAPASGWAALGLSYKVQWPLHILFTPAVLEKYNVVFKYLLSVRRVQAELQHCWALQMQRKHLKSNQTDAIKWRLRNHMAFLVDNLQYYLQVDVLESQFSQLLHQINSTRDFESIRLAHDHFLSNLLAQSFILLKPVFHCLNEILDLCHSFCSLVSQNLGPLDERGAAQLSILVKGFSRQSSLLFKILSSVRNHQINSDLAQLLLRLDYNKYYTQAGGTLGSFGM

Kd [1] | Kd (Biacore S51, FLJ14797-derived protein immobilized on NTA chip, compound 62.5 uM to 0.244 uM, Example 1, read-out: binding dissociation constant KD) | interaction with FLJ14797-derived protein (specificity of binding) (Biacore S51, binding dose-dependent and saturated at high doses) | SMILES
8.43 µM | – | – | CC1(OCCOc2ccc(CC3SC(=O)NC3=O)cc2)CCCCC1 (centres unmarked) [Compound A-1, 5-{4-[2-(1-methyl-cyclohexyloxy)-ethoxy]-benzyl}-thiazolidine-2,4-dione]
13.8 µM | – | – | O=C1NC(=O)C(Cc2ccc(OCCOC3CCCCC3)cc2)S1 (centres unmarked) [Compound A-2]
– | 9.04 µM | specific | CCc1ccc(CCOc2ccc(CC3SC(=O)NC3=O)cc2)nc1 (centres unmarked) [pioglitazone, reference compound]
21.6 µM | – | – | O=C1NC(=O)C(Cc2ccc(OCCOC3CCCC3)cc2)S1 (centres unmarked) [Compound A-3]
